# According to ChEMBL document CHEMBL3885861, “Open TG-GATES”:
# Species on record: Rattus norvegicus
# Assay: Open TG-GATES - Regimen: Daily Repeat
# Type: toxicity, organism-based, Sprague-Dawley
# Parameters: regimen Daily Repeat, gender Male, age 6 weeks
# Settings: in vivo, po, route gavage; for APTT / Bas / Eos / Fbg / Hb / Ht / Lym / MCHC / MCV / Mono / Neu / PT / Plat / RBC / Ret / WBC: tissue Blood; for KIDNEY_L / KIDNEY_R / KIDNEY_TOTAL: tissue Kidney; for LIVER: tissue Liver; for ALP / ALT / AST / CRE / DBIL / GLC / IP / K / LDH / Na / PL / RALB / TBIL / TC / TG / TP / gamma-GTP: tissue Plasma
# [1] = 0 mg/kg, 72 h, dose level Control, time 3 day
# [2] = 0 mg/kg, […], dose level Control, time 7 day
# [3] = 0 mg/kg, […], dose level Control, time 14 day
# [4] = 0 mg/kg, […], dose level Control, time 28 day
# [5] = 60 mg/kg, 72 h, dose level Low, time 3 day
# [6] = 60 mg/kg, […], dose level Low, time 7 day
# [7] = 60 mg/kg, […], dose level Low, time 14 day
# [8] = 60 mg/kg, […], dose level Low, time 28 day
structure (smiles),measurement,setting,value
O=C1NC(=O)C(c2ccccc2)(c2ccccc2)N1 [PHENYTOIN],TERMINAL_BW,[1],217.7 g
same,APTT,[1],21.2 s
same,Bas,[1],0%
same,Eos,[1],0.8%
same,Fbg,[1],301.8 mg/dL
same,Hb,[1],13.3 g/dL
same,Ht,[1],39%
same,Lym,[1],81.2%
same,MCHC,[1],34.1%
same,MCV,[1],64.2 fL
same,Mono,[1],2.4%
same,Neu,[1],15.2%
same,PT,[1],16 s
same,Plat,[1],126.3 x10_4/uL
same,RBC,[1],608.6 x10_4/ul
same,Ret,[1],7.4%
same,WBC,[1],73.8 x10_2/uL
same,KIDNEY_L,[1],1 g
same,KIDNEY_R,[1],1 g
same,KIDNEY_TOTAL,[1],1.9 g
same,LIVER,[1],10.1 g
same,ALP,[1],1688.4 IU/L
same,ALT,[1],46.8 IU/L
same,AST,[1],71 IU/L
same,CRE,[1],0.1 mg/dL
same,DBIL,[1],0 mg/dL
same,GLC,[1],192.6 mg/dL
same,IP,[1],7.6 mg/dL
same,K,[1],4.1 meq/L
same,LDH,[1],178.6 IU/L
same,Na,[1],143 meq/L
same,PL,[1],141.6 mg/dL
same,RALB,[1],3.1 g/dL
same,TBIL,[1],0.018 mg/dL
same,TC,[1],73.4 mg/dL
same,TG,[1],84 mg/dL
same,TP,[1],5.7 g/dL
same,gamma-GTP,[1],1 IU/L
same,TERMINAL_BW,[2],247 g
same,TERMINAL_BW,[3],296.2 g
same,TERMINAL_BW,[4],378.5 g
same,APTT,[2],20.8 s
same,Bas,[2],0%
same,Eos,[2],0.4%
same,Fbg,[2],300.4 mg/dL
same,Hb,[2],13.4 g/dL
same,Ht,[2],39.2%
same,Lym,[2],82.2%
same,MCHC,[2],34.2%
same,MCV,[2],62.4 fL
same,Mono,[2],2.4%
same,Neu,[2],13.6%
same,PT,[2],16 s
same,Plat,[2],125.6 x10_4/uL
same,RBC,[2],628 x10_4/ul
same,Ret,[2],5.6%
same,WBC,[2],113.7 x10_2/uL
same,APTT,[3],21.7 s
same,Bas,[3],0%
same,Eos,[3],1%
same,Fbg,[3],290.6 mg/dL
same,Hb,[3],14.1 g/dL
same,Ht,[3],40.9%
same,Lym,[3],81.4%
same,MCHC,[3],34.4%
same,MCV,[3],59.2 fL
same,Mono,[3],2.2%
same,Neu,[3],14.8%
same,PT,[3],16.5 s
same,Plat,[3],124.2 x10_4/uL
same,RBC,[3],690 x10_4/ul
same,Ret,[3],4.6%
same,WBC,[3],135.4 x10_2/uL
same,APTT,[4],23.3 s
same,Bas,[4],0%
same,Eos,[4],1%
same,Fbg,[4],307.4 mg/dL
same,Hb,[4],15.3 g/dL
same,Ht,[4],42.8%
same,Lym,[4],83.4%
same,MCHC,[4],35.7%
same,MCV,[4],58.7 fL
same,Mono,[4],1.6%
same,Neu,[4],13.4%
same,PT,[4],15.8 s
same,Plat,[4],116.4 x10_4/uL
same,RBC,[4],728.8 x10_4/ul
same,Ret,[4],3.1%
same,WBC,[4],147.1 x10_2/uL
same,KIDNEY_L,[2],1 g
same,KIDNEY_R,[2],1 g
same,KIDNEY_TOTAL,[2],2.1 g
same,KIDNEY_L,[3],1.2 g
same,KIDNEY_R,[3],1.2 g
same,KIDNEY_TOTAL,[3],2.4 g
same,KIDNEY_L,[4],1.3 g
same,KIDNEY_R,[4],1.3 g
same,KIDNEY_TOTAL,[4],2.6 g
same,LIVER,[2],11.2 g
same,LIVER,[3],12.7 g
same,LIVER,[4],15.6 g
same,ALP,[2],1443 IU/L
same,ALT,[2],34.8 IU/L
same,AST,[2],65 IU/L
same,CRE,[2],0.2 mg/dL
same,DBIL,[2],0.004 mg/dL
same,GLC,[2],197.2 mg/dL
same,IP,[2],7.7 mg/dL
same,K,[2],4.6 meq/L
same,LDH,[2],197 IU/L
same,Na,[2],141.6 meq/L
same,PL,[2],140 mg/dL
same,RALB,[2],2.9 g/dL
same,TBIL,[2],0.024 mg/dL
same,TC,[2],67.4 mg/dL
same,TG,[2],131.4 mg/dL
same,TP,[2],5.6 g/dL
same,gamma-GTP,[2],0.8 IU/L
same,ALP,[3],1493.2 IU/L
same,ALT,[3],40 IU/L
same,AST,[3],63 IU/L
same,CRE,[3],0.2 mg/dL
same,DBIL,[3],0 mg/dL
same,GLC,[3],199.4 mg/dL
same,IP,[3],7.2 mg/dL
same,K,[3],4.3 meq/L
same,LDH,[3],136.4 IU/L
same,Na,[3],141.4 meq/L
same,PL,[3],147.4 mg/dL
same,RALB,[3],3 g/dL
same,TBIL,[3],0.012 mg/dL
same,TC,[3],68.4 mg/dL
same,TG,[3],154 mg/dL
same,TP,[3],5.6 g/dL
same,gamma-GTP,[3],1.8 IU/L
same,ALP,[4],1238 IU/L
same,ALT,[4],38.8 IU/L
same,AST,[4],61.8 IU/L
same,CRE,[4],0.3 mg/dL
same,DBIL,[4],0.004 mg/dL
same,GLC,[4],189.6 mg/dL
same,IP,[4],6.3 mg/dL
same,K,[4],3.9 meq/L
same,LDH,[4],151.4 IU/L
same,Na,[4],142.4 meq/L
same,PL,[4],139.6 mg/dL
same,RALB,[4],3 g/dL
same,TBIL,[4],0.022 mg/dL
same,TC,[4],67.8 mg/dL
same,TG,[4],143.4 mg/dL
same,TP,[4],6.1 g/dL
same,gamma-GTP,[4],1.2 IU/L
same,TERMINAL_BW,[5],222.2 g
same,APTT,[5],21.7 s
same,Bas,[5],0%
same,Eos,[5],0.6%
same,Fbg,[5],311.4 mg/dL
same,Hb,[5],13 g/dL
same,Ht,[5],38.1%
same,Lym,[5],81.6%
same,MCHC,[5],34.1%
same,MCV,[5],65.7 fL
same,Mono,[5],1.4%
same,Neu,[5],15.2%
same,PT,[5],15.7 s
same,Plat,[5],130.4 x10_4/uL
same,RBC,[5],581.8 x10_4/ul
same,Ret,[5],7.7%
same,WBC,[5],82.9 x10_2/uL
same,KIDNEY_L,[5],1 g
same,KIDNEY_R,[5],1 g
same,KIDNEY_TOTAL,[5],2 g
same,LIVER,[5],10.7 g
same,ALP,[5],1528 IU/L
same,ALT,[5],38 IU/L
same,AST,[5],65.8 IU/L
same,CRE,[5],0.1 mg/dL
same,DBIL,[5],0 mg/dL
same,GLC,[5],185.4 mg/dL
same,IP,[5],7.5 mg/dL
same,K,[5],4.3 meq/L
same,LDH,[5],213.4 IU/L
same,Na,[5],143 meq/L
same,PL,[5],156 mg/dL
same,RALB,[5],3.1 g/dL
same,TBIL,[5],0.01 mg/dL
same,TC,[5],81.4 mg/dL
same,TG,[5],104.2 mg/dL
same,TP,[5],5.8 g/dL
same,gamma-GTP,[5],1.4 IU/L
same,TERMINAL_BW,[6],250.5 g
same,TERMINAL_BW,[7],308.9 g
same,TERMINAL_BW,[8],366.2 g
same,APTT,[6],22.8 s
same,Bas,[6],0%
same,Eos,[6],1%
same,Fbg,[6],314.8 mg/dL
same,Hb,[6],13.7 g/dL
same,Ht,[6],40.7%
same,Lym,[6],80%
same,MCHC,[6],33.6%
same,MCV,[6],62.6 fL
same,Mono,[6],2.6%
same,Neu,[6],15.8%
same,PT,[6],15.6 s
same,Plat,[6],124.8 x10_4/uL
same,RBC,[6],650.8 x10_4/ul
same,Ret,[6],6.1%
same,WBC,[6],113.1 x10_2/uL
same,APTT,[7],22.6 s
same,Bas,[7],0%
same,Eos,[7],0.8%
same,Fbg,[7],277.4 mg/dL
same,Hb,[7],13.9 g/dL
same,Ht,[7],40.8%
same,Lym,[7],80.6%
same,MCHC,[7],34.2%
same,MCV,[7],60.8 fL
same,Mono,[7],2.2%
same,Neu,[7],15.6%
same,PT,[7],16.2 s
same,Plat,[7],104.4 x10_4/uL
same,RBC,[7],670.4 x10_4/ul
same,Ret,[7],5%
same,WBC,[7],136.7 x10_2/uL
same,APTT,[8],22.8 s
same,Bas,[8],0%
same,Eos,[8],0.8%
same,Fbg,[8],298.8 mg/dL
same,Hb,[8],15.5 g/dL
same,Ht,[8],43.8%
same,Lym,[8],86.8%
same,MCHC,[8],35.5%
same,MCV,[8],57.3 fL
same,Mono,[8],1.8%
same,Neu,[8],10%
same,PT,[8],16 s
same,Plat,[8],107 x10_4/uL
same,RBC,[8],764.6 x10_4/ul
same,Ret,[8],2.6%
same,WBC,[8],141.5 x10_2/uL
same,KIDNEY_L,[6],1.1 g
same,KIDNEY_R,[6],1.1 g
same,KIDNEY_TOTAL,[6],2.1 g
same,KIDNEY_L,[7],1.3 g
same,KIDNEY_R,[7],1.3 g
same,KIDNEY_TOTAL,[7],2.6 g
same,KIDNEY_L,[8],1.3 g
same,KIDNEY_R,[8],1.3 g
same,KIDNEY_TOTAL,[8],2.6 g
same,LIVER,[6],11.8 g
same,LIVER,[7],14.1 g
same,LIVER,[8],14.2 g
same,ALP,[6],1555.8 IU/L
same,ALT,[6],40.4 IU/L
same,AST,[6],64.8 IU/L
same,CRE,[6],0.2 mg/dL
same,DBIL,[6],0 mg/dL
same,GLC,[6],184.6 mg/dL
same,IP,[6],7 mg/dL
same,K,[6],4.4 meq/L
same,LDH,[6],169.2 IU/L
same,Na,[6],141.8 meq/L
same,PL,[6],148.2 mg/dL
same,RALB,[6],3 g/dL
same,TBIL,[6],0.034 mg/dL
same,TC,[6],73.6 mg/dL
same,TG,[6],108 mg/dL
same,TP,[6],5.6 g/dL
same,gamma-GTP,[6],1.2 IU/L
same,ALP,[7],1361 IU/L
same,ALT,[7],40.4 IU/L
same,AST,[7],63.2 IU/L
same,CRE,[7],0.2 mg/dL
same,DBIL,[7],0.008 mg/dL
same,GLC,[7],186.8 mg/dL
same,IP,[7],7.6 mg/dL
same,K,[7],4.2 meq/L
same,LDH,[7],176.6 IU/L
same,Na,[7],142.6 meq/L
same,PL,[7],152.4 mg/dL
same,RALB,[7],3.1 g/dL
same,TBIL,[7],0.012 mg/dL
same,TC,[7],74.2 mg/dL
same,TG,[7],129.6 mg/dL
same,TP,[7],5.5 g/dL
same,gamma-GTP,[7],1.2 IU/L
same,ALP,[8],1279.2 IU/L
same,ALT,[8],41 IU/L
same,AST,[8],64.4 IU/L
same,CRE,[8],0.2 mg/dL
same,DBIL,[8],0.004 mg/dL
same,GLC,[8],181.2 mg/dL
same,IP,[8],5.8 mg/dL
same,K,[8],3.9 meq/L
same,LDH,[8],231.2 IU/L
same,Na,[8],143.4 meq/L
same,PL,[8],131.6 mg/dL
same,RALB,[8],3.1 g/dL
same,TBIL,[8],0.028 mg/dL
same,TC,[8],66.6 mg/dL
same,TG,[8],107.4 mg/dL
same,TP,[8],6.1 g/dL
same,gamma-GTP,[8],1.4 IU/L
